*1 amine or outer side, *2 acyl side, *3 side chain or, on linkers, in order; H or OH if unused. Where a SMILES comes first, the peptide text is derived from it. Side-chain parts run from the residue outwards. [ ]: non-standard residue; d: D form. The star is where a group is joined. γGlu = O=C(O)[C@H](CCC(=O)[*:2])N[*:1]; Stearoyl = CCCCCCCCCCCCCCCCCC(=O)*; AEEA = NCCOCCOCC(=O)O; Aib = CC(C)(N)C(=O)O
Tests used:
[1] = molecular target: Human GLP-1 receptors (Homo sapiens, UniProt P43220); experiment: GLP-1 receptor activation assay (CRE-luciferase reporter, CHO-K1)
Human GLP-1 receptors, sequence (P43220 24-463): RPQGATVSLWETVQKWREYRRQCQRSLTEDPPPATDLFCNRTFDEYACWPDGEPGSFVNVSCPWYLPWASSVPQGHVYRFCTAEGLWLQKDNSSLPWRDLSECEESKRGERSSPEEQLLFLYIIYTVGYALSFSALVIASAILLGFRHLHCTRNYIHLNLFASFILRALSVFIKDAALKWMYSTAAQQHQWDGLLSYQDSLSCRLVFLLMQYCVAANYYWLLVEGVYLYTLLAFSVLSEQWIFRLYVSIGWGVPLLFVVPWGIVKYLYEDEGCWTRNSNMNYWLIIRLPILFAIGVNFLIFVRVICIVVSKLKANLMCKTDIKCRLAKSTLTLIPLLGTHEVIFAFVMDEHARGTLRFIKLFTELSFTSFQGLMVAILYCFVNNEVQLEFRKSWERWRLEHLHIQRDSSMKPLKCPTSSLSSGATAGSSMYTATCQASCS
Description: Then, the resulting increased luciferase activity was evaluated as a measurement of the effect on each receptor activation.
After 3 hours of transfection, medium was exchanged to Alpha Minimal Essential Medium (α-MEM) comprising 10% fetal bovine serum (FBS). Next day, the medium was exchanged to α-MEM comprising the analog of the present invention and 0.1% bovine serum albumin (BSA). After 6 hours, dual luciferase assay reagent was added in the same amount as the medium in which the cells were submerged, and firefly luciferase and Renilla luciferase activities were continuously measured. Firefly luciferase activity values were corrected against Renilla luciferase activity to yield transfection efficiency.

[2] = molecular target: Human glucagon receptors (Homo sapiens, UniProt P47871); experiment: Glucagon receptor activation assay (CRE-luciferase reporter, CHO-K1)
Human glucagon receptors, sequence (P47871 26-477): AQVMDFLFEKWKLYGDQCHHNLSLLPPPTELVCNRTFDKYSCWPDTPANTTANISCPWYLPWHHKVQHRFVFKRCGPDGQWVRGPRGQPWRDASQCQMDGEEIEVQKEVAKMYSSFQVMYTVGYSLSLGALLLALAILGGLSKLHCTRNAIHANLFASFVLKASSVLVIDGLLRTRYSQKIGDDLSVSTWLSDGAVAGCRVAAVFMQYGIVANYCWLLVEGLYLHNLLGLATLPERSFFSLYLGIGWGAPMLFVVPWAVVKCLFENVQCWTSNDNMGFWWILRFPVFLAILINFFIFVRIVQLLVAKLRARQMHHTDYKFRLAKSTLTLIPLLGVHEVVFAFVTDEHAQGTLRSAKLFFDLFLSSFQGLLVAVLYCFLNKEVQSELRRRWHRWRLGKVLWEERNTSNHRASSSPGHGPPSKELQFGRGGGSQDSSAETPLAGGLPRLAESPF

Row | SMILES | EC50 [1] | EC50 [2]
1 | CSCC[C@H](NC(=O)[C@H](CC(C)C)NC(=O)[C@H](Cc1c[nH]c2ccccc12)NC(=O)[C@H](CCC(N)=O)NC(=O)[C@@H](NC(=O)[C@H](Cc1ccccc1)NC(=O)[C@H](CC(=O)O)NC(=O)[C@H](CCC(N)=O)NC(=O)[C@H](C)NC(=O)[C@H](CCCNC(=N)N)NC(=O)[C@H](CCCNC(=N)N)NC(=O)C(C)(C)NC(=O)[C@H](CC(=O)O)NC(=O)[C@H](CC(C)C)NC(=O)[C@H](Cc1ccc(O)cc1)NC(=O)[C@H](CCCCN)NC(=O)[C@H](CO)NC(=O)[C@H](CCCCN)NC(=O)[C@H](CC(=O)O)NC(=O)[C@H](CO)NC(=O)[C@@H](NC(=O)[C@H](Cc1ccccc1)NC(=O)[C@@H](NC(=O)CNC(=O)[C@H](CCC(N)=O)NC(=O)C(C)(C)NC(=O)[C@@H](N)Cc1c[nH]cn1)[C@@H](C)O)[C@@H](C)O)C(C)C)C(=O)N[C@@H](CC(N)=O)C(=O)N[C@H](C(=O)N[C@@H](CCCCN)C(=O)O)[C@@H](C)O [Compound 39] | > 1 nM | > 1 nM
2 | CCCCCCCCCCCCCCCCCC(=O)N[C@@H](CCC(=O)NCCOCCOCC(=O)NCCOCCOCC(=O)NCCCC[C@H](NC(=O)[C@H](CC(=O)O)NC(=O)[C@H](CO)NC(=O)[C@@H](NC(=O)[C@H](Cc1ccccc1)NC(=O)[C@@H](NC(=O)CNC(=O)[C@H](CCC(N)=O)NC(=O)C(C)(C)NC(=O)[C@@H](N)Cc1c[nH]cn1)[C@@H](C)O)[C@@H](C)O)C(=O)N[C@@H](CO)C(=O)N[C@@H](CCCCN)C(=O)N[C@@H](Cc1ccc(O)cc1)C(=O)N[C@@H](CC(C)C)C(=O)N[C@@H](CC(=O)O)C(=O)N[C@H]1CCCCNC(=O)C2CCN(CC2)C(=O)CC[C@@H](C(=O)N[C@@H](CC(=O)O)C(=O)N[C@@H](Cc2ccccc2)C(=O)N[C@H](C(=O)N[C@@H](CCC(N)=O)C(=O)N[C@@H](Cc2c[nH]c3ccccc23)C(=O)N[C@@H](CC(C)C)C(=O)N[C@@H](CCSC)C(=O)N[C@@H](CC(N)=O)C(=O)N[C@H](C(=O)N[C@@H](CCCCN)C(=O)O)[C@@H](C)O)C(C)C)NC(=O)[C@H](C)NC(=O)[C@H](CCCNC(=N)N)NC(=O)[C@H](CCCNC(=N)N)NC1=O)C(=O)O [Compound 32, H-HA1 bQGTFTSDZSKYLDKRRAEDFVQWLMNTK-OH] | < 0.01 nM | < 0.01 nM
3 | CCCCCCCCCCCCCCCCCC(=O)N[C@@H](CCC(=O)NCCOCCOCC(=O)NCCOCCOCC(=O)NCCCC[C@H](NC(=O)[C@H](CC(=O)O)NC(=O)[C@H](CO)NC(=O)[C@@H](NC(=O)[C@H](Cc1ccccc1)NC(=O)[C@@H](NC(=O)CNC(=O)[C@H](CCC(N)=O)NC(=O)C(C)(C)NC(=O)[C@@H](N)Cc1c[nH]cn1)[C@@H](C)O)[C@@H](C)O)C(=O)N[C@@H](CO)C(=O)N[C@@H](CCCCN)C(=O)N[C@@H](Cc1ccc(O)cc1)C(=O)N[C@@H](CC(C)C)C(=O)N[C@@H](CC(=O)O)C(=O)N[C@H]1CCCCNC(=O)c2ccc(cc2)C(=O)NCCCC[C@@H](C(=O)N[C@@H](CC(=O)O)C(=O)N[C@@H](Cc2ccccc2)C(=O)N[C@H](C(=O)N[C@@H](CCC(N)=O)C(=O)N[C@@H](Cc2c[nH]c3ccccc23)C(=O)N[C@@H](CC(C)C)C(=O)N[C@@H](CCSC)C(=O)N[C@@H](CC(N)=O)C(=O)N[C@H](C(=O)N[C@@H](CCCCN)C(=O)O)[C@@H](C)O)C(C)C)NC(=O)[C@H](C)NC(=O)[C@H](CCCNC(=N)N)NC(=O)[C@H](CCCNC(=N)N)NC1=O)C(=O)O [Compound 31, H-HAibQGTFTSDZSKYLDKRRAKDFVQWLMNTK-OH] | < 0.01 nM | < 0.01 nM
4 | CCCCCCCCCCCCCCCCCC(=O)N[C@@H](CCC(=O)NCCOCCOCC(=O)NCCOCCOCC(=O)NCCCC[C@H](NC(=O)[C@H](CC(=O)O)NC(=O)[C@H](CO)NC(=O)[C@@H](NC(=O)[C@H](Cc1ccccc1)NC(=O)[C@@H](NC(=O)CNC(=O)[C@H](CCC(N)=O)NC(=O)C(C)(C)NC(=O)[C@@H](N)Cc1c[nH]cn1)[C@@H](C)O)[C@@H](C)O)C(=O)N[C@@H](CO)C(=O)N[C@@H](CCCCN)C(=O)N[C@@H](Cc1ccc(O)cc1)C(=O)N[C@@H](CC(C)C)C(=O)N[C@@H](CC(=O)O)C(=O)N[C@H]1CSSC[C@@H](C(=O)N[C@@H](CC(=O)O)C(=O)N[C@@H](Cc2ccccc2)C(=O)N[C@H](C(=O)N[C@@H](CCC(N)=O)C(=O)N[C@@H](Cc2c[nH]c3ccccc23)C(=O)N[C@@H](CC(C)C)C(=O)N[C@@H](CCSC)C(=O)N[C@@H](CC(N)=O)C(=O)N[C@H](C(=O)N[C@@H](CCCCN)C(=O)O)[C@@H](C)O)C(C)C)NC(=O)[C@H](C)NC(=O)[C@H](CCCNC(=N)N)NC(=O)[C@H](CCCNC(=N)N)NC1=O)C(=O)O [Compound 28, H-HAibQGTFTSDZSKYLDCRRACDFVQWLMNTK-OH] | 0.1 to 1 nM | 0.1 to 1 nM

Continued, values first:

Row | EC50 [1] | EC50 [2] | SMILES
5 | < 0.01 nM | < 0.01 nM | CCCCCCCCCCCCCCCCCC(=O)N[C@@H](CCC(=O)NCCOCCOCC(=O)NCCOCCOCC(=O)NCCCC[C@H](NC(=O)[C@H](CC(=O)O)NC(=O)[C@H](CO)NC(=O)[C@@H](NC(=O)[C@H](Cc1ccccc1)NC(=O)[C@@H](NC(=O)CNC(=O)[C@H](CCC(N)=O)NC(=O)C(C)(C)NC(=O)[C@@H](N)Cc1c[nH]cn1)[C@@H](C)O)[C@@H](C)O)C(=O)N[C@@H](CO)C(=O)N[C@@H](CCCCN)C(=O)N[C@@H](Cc1ccc(O)cc1)C(=O)N[C@@H](CC(C)C)C(=O)N[C@@H](CC(=O)O)C(=O)N[C@H]1CCCCNC(=O)C[C@@H](C(=O)N[C@@H](CC(=O)O)C(=O)N[C@@H](Cc2ccccc2)C(=O)N[C@H](C(=O)N[C@@H](CCC(N)=O)C(=O)N[C@@H](Cc2c[nH]c3ccccc23)C(=O)N[C@@H](CC(C)C)C(=O)N[C@@H](CCSC)C(=O)N[C@@H](CC(N)=O)C(=O)N[C@H](C(=O)N[C@@H](CCCCN)C(=O)O)[C@@H](C)O)C(C)C)NC(=O)[C@H](C)NC(=O)[C@H](CCCNC(=N)N)NC(=O)[C@H](CCCNC(=N)N)NC1=O)C(=O)O [Compound 27, H-HAibQGTFTSDZSKYLDKRRADDFVQWLMNTK-OH]
6 | 0.1 to 1 nM | > 1 nM | CCCCCCCCCCCCCCCCCC(=O)N[C@@H](CCC(=O)NCCOCCOCC(=O)NCCOCCOCC(=O)NCCCC[C@H](NC(=O)[C@H](CO)NC(=O)[C@@H](NC(=O)[C@H](Cc1ccccc1)NC(=O)[C@@H](NC(=O)CNC(=O)[C@H](CCC(N)=O)NC(=O)C(C)(C)NC(=O)[C@@H](N)Cc1c[nH]cn1)[C@@H](C)O)[C@@H](C)O)C(=O)N[C@@H](Cc1ccc(O)cc1)C(=O)N[C@@H](CO)C(=O)N[C@@H](CCCCN)C(=O)N[C@@H](Cc1ccc(O)cc1)C(=O)N[C@@H](CC(C)C)C(=O)N[C@@H](CC(=O)O)C(=O)NC(C)(C)C(=O)N[C@@H](CCCNC(=N)N)C(=O)N[C@@H](CCCNC(=N)N)C(=O)N[C@@H](C)C(=O)N[C@@H](CCC(N)=O)C(=O)N[C@@H](CC(=O)O)C(=O)N[C@@H](Cc1ccccc1)C(=O)N[C@H](C(=O)N[C@@H](CCC(N)=O)C(=O)N[C@@H](Cc1c[nH]c2ccccc12)C(=O)N[C@@H](CC(C)C)C(=O)N[C@@H](CCSC)C(=O)N[C@@H](CC(N)=O)C(=O)N[C@H](C(=O)N[C@@H](CCCCN)C(=O)O)[C@@H](C)O)C(C)C)C(=O)O [Compound 40] (H-H[Aib]QGTFTSK([AEEA-AEEA-γGlu-Stearoyl])YSKYLD[Aib]RRAQDFVQWLMNTK-OH)
7 | < 0.01 nM | < 0.01 nM | CCCCCCCCCCCCCCCCCC(=O)N[C@@H](CCC(=O)NCCOCCOCC(=O)NCCOCCOCC(=O)NCCCC[C@H](NC(=O)[C@H](CC(=O)O)NC(=O)[C@H](CO)NC(=O)[C@@H](NC(=O)[C@H](Cc1ccccc1)NC(=O)[C@@H](NC(=O)CNC(=O)[C@H](CCC(N)=O)NC(=O)C(C)(C)NC(=O)[C@@H](N)Cc1c[nH]cn1)[C@@H](C)O)[C@@H](C)O)C(=O)N[C@@H](CO)C(=O)N[C@@H](CCCCN)C(=O)N[C@@H](Cc1ccc(O)cc1)C(=O)N[C@@H](CC(C)C)C(=O)N[C@@H](CC(=O)O)C(=O)NC(C)(C)C(=O)N[C@@H](CCCNC(=N)N)C(=O)N[C@@H](CCCNC(=N)N)C(=O)N[C@@H](C)C(=O)N[C@@H](CCC(N)=O)C(=O)N[C@@H](CC(=O)O)C(=O)N[C@@H](Cc1ccccc1)C(=O)N[C@H](C(=O)N[C@@H](CCC(N)=O)C(=O)N[C@@H](Cc1c[nH]c2ccccc12)C(=O)N[C@@H](CC(C)C)C(=O)N[C@@H](CCSC)C(=O)N[C@@H](CC(N)=O)C(=O)N[C@H](C(=O)N[C@@H](CCCCN)C(=O)O)[C@@H](C)O)C(C)C)C(=O)O [Compound 3]
8 | < 0.01 nM | < 0.01 nM | CCCCCCCCCCCCCCCCCC(=O)N[C@@H](CCC(=O)NCCOCCOCC(=O)NCCOCCOCC(=O)NCCCC[C@H](NC(=O)[C@H](CC(=O)O)NC(=O)[C@H](CO)NC(=O)[C@@H](NC(=O)[C@H](Cc1ccccc1)NC(=O)[C@@H](NC(=O)CNC(=O)[C@H](CCC(N)=O)NC(=O)C(C)(C)NC(=O)[C@@H](N)Cc1c[nH]cn1)[C@@H](C)O)[C@@H](C)O)C(=O)N[C@@H](CO)C(=O)N[C@@H](CCCCN)C(=O)N[C@@H](Cc1ccc(O)cc1)C(=O)N[C@@H](CC(C)C)C(=O)N[C@@H](CC(=O)O)C(=O)NC(C)(C)C(=O)N[C@@H](CCCNC(=N)N)C(=O)N[C@@H](CCCNC(=N)N)C(=O)N[C@@H](C)C(=O)N[C@@H](CCC(N)=O)C(=O)N[C@@H](CC(=O)O)C(=O)N[C@@H](Cc1ccccc1)C(=O)N[C@H](C(=O)N[C@@H](CCC(N)=O)C(=O)N[C@@H](Cc1c[nH]c2ccccc12)C(=O)N[C@@H](CC(C)C)C(=O)N[C@@H](CC(C)C)C(=O)N[C@@H](CCCNC(=N)N)C(=O)N[C@@H](C)C(=O)N[C@@H](CCCCN)C(=O)O)C(C)C)C(=O)O [Compound 12]
9 | < 0.01 nM | < 0.01 nM | CCCCCCCCCCCCCCCCCC(=O)N[C@@H](CCC(=O)NCCOCCOCC(=O)NCCOCCOCC(=O)NCCCC[C@H](NC(=O)[C@H](CC(=O)O)NC(=O)[C@H](CO)NC(=O)[C@@H](NC(=O)[C@H](Cc1ccccc1)NC(=O)[C@@H](NC(=O)CNC(=O)[C@H](CCC(N)=O)NC(=O)C(C)(C)NC(=O)[C@@H](N)Cc1c[nH]cn1)[C@@H](C)O)[C@@H](C)O)C(=O)N[C@@H](CO)C(=O)N[C@@H](CCCCN)C(=O)N[C@@H](Cc1ccc(O)cc1)C(=O)N[C@@H](CC(C)C)C(=O)N[C@@H](CC(=O)O)C(=O)N[C@H]1CCC(=O)NCCCC[C@@H](C(=O)N[C@@H](CC(=O)O)C(=O)N[C@@H](Cc2ccccc2)C(=O)N[C@H](C(=O)N[C@@H](CCC(N)=O)C(=O)N[C@@H](Cc2c[nH]c3ccccc23)C(=O)N[C@@H](CC(C)C)C(=O)N[C@@H](CCSC)C(=O)N[C@@H](CC(N)=O)C(=O)N[C@H](C(=O)N[C@@H](CCCCN)C(N)=O)[C@@H](C)O)C(C)C)NC(=O)[C@H](C)NC(=O)[C@H](CCCNC(=N)N)NC(=O)[C@H](CCCNC(=N)N)NC1=O)C(=O)O [Compound 19, H-HAibQGTFTSDZSKYLDERRAKDFVQWLMNTK-NH2]

From US11713344B2 (DONG-A ST CO., LTD., priority 2017, dated 2023)
